Measurements: the Kinase Knowledgebase extract (Sharma et al. 2016)

Each molecule was assayed against ROCK2 (human) (UniProt O75116) (assay: Assessment of ROCK2 Kinase Activity).
ROCK2 (human), sequence (O75116 whole entry, looked up): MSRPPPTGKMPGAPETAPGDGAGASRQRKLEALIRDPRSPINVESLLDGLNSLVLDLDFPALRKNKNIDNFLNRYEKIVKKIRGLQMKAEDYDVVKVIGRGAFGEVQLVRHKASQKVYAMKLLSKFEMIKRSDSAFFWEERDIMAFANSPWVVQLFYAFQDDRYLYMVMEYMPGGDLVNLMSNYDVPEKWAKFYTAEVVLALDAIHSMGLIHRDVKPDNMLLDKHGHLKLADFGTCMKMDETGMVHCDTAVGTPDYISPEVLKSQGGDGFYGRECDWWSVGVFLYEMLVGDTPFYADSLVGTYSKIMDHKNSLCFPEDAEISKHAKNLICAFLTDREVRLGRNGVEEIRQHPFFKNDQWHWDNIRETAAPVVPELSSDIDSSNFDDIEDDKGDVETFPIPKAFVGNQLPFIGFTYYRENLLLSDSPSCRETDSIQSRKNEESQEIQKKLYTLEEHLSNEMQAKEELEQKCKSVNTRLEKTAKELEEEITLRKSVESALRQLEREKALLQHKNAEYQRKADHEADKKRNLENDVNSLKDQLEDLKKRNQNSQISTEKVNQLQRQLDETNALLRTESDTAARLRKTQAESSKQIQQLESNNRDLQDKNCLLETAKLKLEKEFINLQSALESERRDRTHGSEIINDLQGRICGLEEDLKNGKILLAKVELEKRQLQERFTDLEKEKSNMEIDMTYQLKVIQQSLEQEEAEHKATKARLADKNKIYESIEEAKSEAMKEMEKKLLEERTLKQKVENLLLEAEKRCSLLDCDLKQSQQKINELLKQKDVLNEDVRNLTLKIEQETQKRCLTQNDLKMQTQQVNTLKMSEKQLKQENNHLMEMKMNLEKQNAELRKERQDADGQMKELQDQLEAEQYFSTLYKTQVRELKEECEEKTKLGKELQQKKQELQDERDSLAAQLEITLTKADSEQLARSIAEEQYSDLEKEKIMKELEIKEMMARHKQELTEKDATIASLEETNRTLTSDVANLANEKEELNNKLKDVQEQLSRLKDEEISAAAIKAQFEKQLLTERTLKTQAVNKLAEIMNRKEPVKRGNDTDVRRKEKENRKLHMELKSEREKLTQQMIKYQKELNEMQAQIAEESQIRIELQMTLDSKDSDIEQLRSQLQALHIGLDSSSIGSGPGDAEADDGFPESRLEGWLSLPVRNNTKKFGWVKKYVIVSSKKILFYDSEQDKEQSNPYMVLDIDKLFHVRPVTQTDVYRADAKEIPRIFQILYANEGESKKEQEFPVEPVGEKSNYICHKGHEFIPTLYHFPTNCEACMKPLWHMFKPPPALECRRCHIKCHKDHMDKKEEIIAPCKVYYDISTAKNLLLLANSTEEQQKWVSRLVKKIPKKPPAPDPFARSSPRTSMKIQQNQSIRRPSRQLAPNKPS
For `N[C@H]1CC[C@H](Oc2cc3cc[nH]c(=O)c3cc2Cl)C1`, the IC50 was ≤ 1000 nM.
`N[C@H]1C[C@H](COc2cc3cc[nH]c(=O)c3cc2Cl)C1` was tested, and the IC50 was ≤ 1000 nM.
For `N[C@@H]1CC[C@H](Oc2ccc3c(=O)[nH]ccc3c2)C1`, the IC50 was ≤ 1000 nM.
With `O=c1[nH]ccc2cc(O[C@H]3CC[C@H](N4CCOCC4)CC3)c(Cl)cc12` the IC50 was ≤ 1000 nM.
`O=C(CCC1CCNCC1)N[C@H]1CC[C@@H](Oc2cc3cc[nH]c(=O)c3cc2Cl)CC1` was tested, and the IC50 was ≤ 1000 nM.
For `O=c1[nH]ccc2cc(O[C@H]3CC[C@@H](N4CCCC4)CC3)c(Cl)cc12`, the IC50 was ≤ 1000 nM.
`Cc1cc2c(=O)[nH]ccc2cc1O[C@@H]1CCC[C@H](N)CC1` was tested, and the IC50 was ≤ 1000 nM.
For `CN1CCN([C@H]2CC[C@@H](Oc3cc4cc[nH]c(=O)c4cc3Cl)CC2)CC1`, the IC50 was ≤ 1000 nM.
In the case of `O=C(O)CN[C@H]1CC[C@@H](Oc2cc3cc[nH]c(=O)c3cc2Cl)CC1`, the IC50 is reported as ≤ 1000 nM.
In the case of `CN1CCN([C@H]2CC[C@H](Oc3cc4cc[nH]c(=O)c4cc3Cl)CC2)CC1`, the IC50 is reported as ≤ 1000 nM.
In the case of `N[C@H]1CCC[C@@H](Oc2cc3cc[nH]c(=O)c3cc2Cl)CC1`, the IC50 is reported as ≤ 1000 nM.
For `O=c1[nH]ccc2cc(OC3CCC(N4CCCCC4)CC3)c(Cl)cc12` (centres undefined), the IC50 was ≤ 1000 nM.
With `O=C(CC1CCNCC1)N[C@H]1CC[C@@H](Oc2cc3cc[nH]c(=O)c3cc2Cl)CC1` the IC50 was ≤ 1000 nM.
In the case of `NC1CC(Oc2cc3cc[nH]c(=O)c3cc2Cl)C1` (centres undefined), the IC50 is reported as ≤ 1000 nM.
`O=c1[nH]ccc2cc(O[C@H]3CC[C@@H](N4CCOCC4)CC3)c(Cl)cc12` was tested, and the IC50 was ≤ 1000 nM.
For `O=c1[nH]ccc2cc(O[C@H]3CC[C@H](N4CCCC4)CC3)c(Cl)cc12`, the IC50 was ≤ 1000 nM.
For `NC(=O)C1CCN(C2CCC(Oc3cc4cc[nH]c(=O)c4cc3Cl)CC2)CC1` (centres undefined), the IC50 was ≤ 1000 nM.
With `CCC[C@]1(N)CCC[C@H](Oc2cc3cc[nH]c(=O)c3cc2Cl)CCC1` the IC50 was ≤ 1000 nM.
With `CCC[C@]1(N)CCC[C@@H](Oc2cc3cc[nH]c(=O)c3cc2Cl)CCC1` the IC50 was ≤ 1000 nM.
